Measurements from patent US9637487B2, “Purinone compounds as kinase inhibitors” (Pharmacyclics LLC, priority 2013, dated 2017).

Target: Btk (Homo sapiens (Human), UniProt Q06187)
Assay: Btk in vitro inhibitory activity (one of Method A TR-FRET, Method B mobility shift, Method C radiometric filter binding)
Assay type: biochemical
Settings: determined using one of the methods outlined in Example 36a, 36b and 36c
Procedure: Btk kinase activity is determined using a time-resolved fluorescence resonance energy transfer (TR-FRET) methodology. Measurements are performed in a reaction volume of 50 μL using 96-well assay plates. […] The reaction is quenched by the addition of 1.2 equivalents of EDTA (relative to divalent cation) in 25 μL of 1× Lance buffer (Perkin-Elmer). […] The TR-FRET signal is measured on a multimode plate reader with an excitation wavelength (λEx) of 330 nm and detection wavelengths (λEm) of 615 and 665 nm. Activity is determined by the ratio of the fluorescence at 665 nm to that at 615 nm. For each compound, enzyme activity is measured at various concentrations of compound. Negative control reactions are performed in the absence of inhibitor in replicates of six, and two no-enzyme controls are used to determine baseline fluorescence levels Inhibition constants, Ki(app), ware obtained using the program BatchKi (Kuzmic et al. (2000), Anal. Biochem. 286:45-50). IC50s are obtained according to the equation: IC50={Ki(app)/(1+[ATP]/Km^ATP)}+[E]total/2;
Kinase activity is measured in vitro using electrophoretic mobility shift assay. The kinase reactions are assembled in a total volume of 25 μL in 384 well plates. […] The reaction is incubated for one hour and is quenched by the addition of 45 μL of termination buffer (100 mM HEPES, pH7.5, 0.01% Triton X-100, 30 mM EDTA). The terminated reactions are analyzed using 12 channel LabChip® 3000 microfluidic detection instrument (Caliper Life Sciences). […] Change in the relative fluorescence intensity of the substrate and product peaks is the parameter measured, reflecting enzyme activity. In the presence of an inhibitor, the ratio between product and substrate is altered: the signal of the product decreases, while the signal of the substrate increases.
Activity in each sample is determined as the product to sum ratio (PSR):P/(S+P), where P is the peak height of the product peptide and S is the peak height of the substrate peptide. For each compound, enzyme activity is measured at various concentrations (12 concentrations of compound spaced by 3× dilution intervals). Negative control samples (0%-inhibition in the absence of inhibitor) and positive control samples (100%-inhibition, in the presence of 20 mM EDTA) are assembled in replicates of four and are used to calculate %-inhibition values for each inhibitor at each concentration. Percent inhibition (Pinh) is determined using following equation: Pinh=(PSR0%−PSRinh)/(PSR0%−PSR100%)*100, where PSRinh is the product sum ratio in the presence of inhibitor, PSR0% is the average product sum ration in the absence of inhibitor and PSR100% is the average product sum ratio in 100%-inhibition control samples;
The IC50 values of inhibitors are determined by 4 parameter sigmoidal dose-response model fitting of the inhibition curves (Pinh versus inhibitor concentration) using XLfit 4 software.
IC50 values and curve fits were obtained using Prism (GraphPad Software).
The degree of Btk inhibition was determined using one of the methods outlined in Example 36a, 36b and 36c.

Btk, sequence (Q06187 whole entry): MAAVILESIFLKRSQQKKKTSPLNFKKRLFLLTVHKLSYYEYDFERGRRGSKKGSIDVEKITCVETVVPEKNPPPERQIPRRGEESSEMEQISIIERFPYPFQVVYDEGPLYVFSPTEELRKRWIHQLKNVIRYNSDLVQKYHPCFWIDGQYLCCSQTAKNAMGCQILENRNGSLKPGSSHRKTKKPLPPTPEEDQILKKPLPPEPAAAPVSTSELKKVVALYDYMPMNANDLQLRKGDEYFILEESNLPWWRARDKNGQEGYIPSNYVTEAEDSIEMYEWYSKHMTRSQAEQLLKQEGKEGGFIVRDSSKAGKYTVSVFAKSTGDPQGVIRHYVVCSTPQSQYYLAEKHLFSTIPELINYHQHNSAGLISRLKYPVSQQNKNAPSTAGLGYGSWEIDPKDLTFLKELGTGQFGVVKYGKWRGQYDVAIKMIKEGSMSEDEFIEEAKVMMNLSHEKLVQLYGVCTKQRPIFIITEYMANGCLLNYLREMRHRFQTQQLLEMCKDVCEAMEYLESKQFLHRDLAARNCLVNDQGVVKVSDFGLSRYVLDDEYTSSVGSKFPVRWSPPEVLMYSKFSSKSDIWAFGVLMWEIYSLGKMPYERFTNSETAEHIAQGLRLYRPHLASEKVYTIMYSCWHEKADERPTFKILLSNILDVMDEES

| Structure (SMILES) | IC50 [nM] |
| --- | --- |
| CN(C)C/C=C/C(=O)N(C)c1cccc(-n2c(=O)n(-c3ccc(C(=O)Nc4ccccn4)cc3)c3c(N)ncnc32)c1 [Compound 6, (E)-4-(6-amino-9-(3-(4-(dimethylamino)-N-methylbut-2-enamido)phenyl)-8-oxo-8,9-dihydro-7H-purin-7-yl)-N-(pyridin-2-yl)benzamide] | < 100 |
| Cc1ccnc(NC(=O)c2ccc(-n3c(=O)n(-c4cccc(N(C)C(=O)/C=C/CN(C)C)c4)c4ncnc(N)c43)cc2)c1 [Compound 7, (E)-4-(6-amino-9-(3-(4-(dimethylamino)-N-methylbut-2-enamido)phenyl)-8-oxo-8,9-dihydro-7H-purin-7-yl)-N-(4-methylpyridin-2-yl)benzamide] | < 100 |
| CCc1ccnc(NC(=O)c2ccc(-n3c(=O)n(-c4cccc(N(C)C(=O)/C=C/CN(C)C)c4)c4ncnc(N)c43)cc2)c1 [Compound 8, (E)-4-(6-amino-9-(3-(4-(dimethylamino)-N-methylbut-2-enamido)phenyl)-8-oxo-8,9-dihydro-7H-purin-7-yl)-N-(4-ethylpyridin-2-yl)benzamide] | < 100 |
| CCCc1ccnc(NC(=O)c2ccc(-n3c(=O)n(-c4cccc(N(C)C(=O)/C=C/CN(C)C)c4)c4ncnc(N)c43)cc2)c1 [Compound 9, (E)-4-(6-amino-9-(3-(4-(dimethylamino)-N-methylbut-2-enamido)phenyl)-8-oxo-8,9-dihydro-7H-purin-7-yl)-N-(4-propylpyridin-2-yl)benzamide] | < 100 |
| CN(C)C/C=C/C(=O)N(C)c1cccc(-n2c(=O)n(-c3ccc(C(=O)Nc4cc(C(F)(F)F)ccn4)cc3)c3c(N)ncnc32)c1 [Compound 10, (E)-4-(6-amino-9-(3-(4-(dimethylamino)-N-methylbut-2-enamido)phenyl)-8-oxo-8,9-dihydro-7H-purin-7-yl)-N-(4-(trifluoromethyl)pyridin-2-yl)benzamide] | < 100 |
| CN(C)C/C=C/C(=O)N(C)c1cccc(-n2c(=O)n(-c3ccc(C(=O)Nc4cccc(C(F)(F)F)c4)cc3)c3c(N)ncnc32)c1 [Compound 11, (E)-4-(6-amino-9-(3-(4-(dimethylamino)-N-methylbut-2-enamido)phenyl)-8-oxo-8,9-dihydro-7H-purin-7-yl)-N-(3-(trifluoromethyl)phenyl)benzamide] | < 100 |
| CN(C)C/C=C/C(=O)N(C)c1cccc(-n2c(=O)n(-c3ccc(C(=O)Nc4cccc(-c5ncccn5)c4)cc3)c3c(N)ncnc32)c1 [Compound 12, (E)-4-(6-amino-9-(3-(4-(dimethylamino)-N-methylbut-2-enamido)phenyl)-8-oxo-8,9-dihydro-7H-purin-7-yl)-N-(3-(pyrimidin-2-yl)phenyl)benzamide] | < 100 |
| CN(C)C/C=C/C(=O)N(C)c1cccc(-n2c(=O)n(-c3ccc(C(=O)Nc4ncccc4F)cc3)c3c(N)ncnc32)c1 [Compound 13, (E)-4-(6-amino-9-(3-(4-(dimethylamino)-N-methylbut-2-enamido)phenyl)-8-oxo-8,9-dihydro-7H-purin-7-yl)-N-(3-fluoropyridin-2-yl)benzamide] | 100 to 1000 |
| CN(C)C/C=C/C(=O)N(C)c1cccc(-n2c(=O)n(-c3ccc(C(=O)Nc4ccc(F)cn4)cc3)c3c(N)ncnc32)c1 [Compound 14, (E)-4-(6-amino-9-(3-(4-(dimethylamino)-N-methylbut-2-enamido)phenyl)-8-oxo-8,9-dihydro-7H-purin-7-yl)-N-(5-fluoropyridin-2-yl)benzamide] | < 100 |
| CN(C)C/C=C/C(=O)N(C)c1cccc(-n2c(=O)n(-c3ccc(C(=O)Nc4cncc(F)c4)cc3)c3c(N)ncnc32)c1 [Compound 15, (E)-4-(6-amino-9-(3-(4-(dimethylamino)-N-methylbut-2-enamido)phenyl)-8-oxo-8,9-dihydro-7H-purin-7-yl)-N-(5-fluoropyridin-3-yl)benzamide] | 100 to 1000 |
| Cc1cc(NC(=O)c2ccc(-n3c(=O)n(-c4cccc(N(C)C(=O)/C=C/CN(C)C)c4)c4ncnc(N)c43)cc2)ncc1F [Compound 16, (E)-4-(6-amino-9-(3-(4-(dimethylamino)-N-methylbut-2-enamido)phenyl)-8-oxo-8,9-dihydro-7H-purin-7-yl)-N-(5-fluoro-4-methylpyridin-2-yl)benzamide] | < 100 |
| CN(C)C/C=C/C(=O)N(C)c1cccc(-n2c(=O)n(-c3ccc(C(=O)Nc4ccc(Cl)cn4)cc3)c3c(N)ncnc32)c1 [Compound 17, (E)-4-(6-amino-9-(3-(4-(dimethylamino)-N-methylbut-2-enamido)phenyl)-8-oxo-8,9-dihydro-7H-purin-7-yl)-N-(5-chloropyridin-2-yl)benzamide] | < 100 |
| CN(C)C/C=C/C(=O)N(C)c1cccc(-n2c(=O)n(-c3ccc(C(=O)Nc4nccs4)cc3)c3c(N)ncnc32)c1 [Compound 18, (E)-4-(6-amino-9-(3-(4-(dimethylamino)-N-methylbut-2-enamido)phenyl)-8-oxo-8,9-dihydro-7H-purin-7-yl)-N-(thiazol-2-yl)benzamide] | < 100 |
| Cc1cnc(NC(=O)c2ccc(-n3c(=O)n(-c4cccc(N(C)C(=O)/C=C/CN(C)C)c4)c4ncnc(N)c43)cc2)s1 [Compound 19, (E)-4-(6-amino-9-(3-(4-(dimethylamino)-N-methylbut-2-enamido)phenyl)-8-oxo-8,9-dihydro-7H-purin-7-yl)-N-(5-methylthiazol-2-yl)benzamide] | < 100 |
| Cc1csc(NC(=O)c2ccc(-n3c(=O)n(-c4cccc(N(C)C(=O)/C=C/CN(C)C)c4)c4ncnc(N)c43)cc2)n1 [Compound 20, (E)-4-(6-amino-9-(3-(4-(dimethylamino)-N-methylbut-2-enamido)phenyl)-8-oxo-8,9-dihydro-7H-purin-7-yl)-N-(4-methylthiazol-2-yl)benzamide] | < 100 |
| Cc1nc(NC(=O)c2ccc(-n3c(=O)n(-c4cccc(N(C)C(=O)/C=C/CN(C)C)c4)c4ncnc(N)c43)cc2)sc1C [Compound 21, (E)-4-(6-amino-9-(3-(4-(dimethylamino)-N-methylbut-2-enamido)phenyl)-8-oxo-8,9-dihydro-7H-purin-7-yl)-N-(4,5-dimethylthiazol-2-yl)benzamide] | < 100 |
| CN(C)C/C=C/C(=O)N(C)c1cccc(-n2c(=O)n(-c3ccc(C(=O)Nc4nc5c(s4)CCCC5)cc3)c3c(N)ncnc32)c1 [Compound 22, (E)-4-(6-amino-9-(3-(4-(dimethylamino)-N-methylbut-2-enamido)phenyl)-8-oxo-8,9-dihydro-7H-purin-7-yl)-N-(4,5,6,7-tetrahydrobenzo[d]thiazol-2-yl)benzamide] | < 100 |
| CN(C)C/C=C/C(=O)N(C)c1cccc(-n2c(=O)n(-c3ccc(C(=O)Nc4nc5ccccc5s4)cc3)c3c(N)ncnc32)c1 [Compound 23, (E)-4-(6-amino-9-(3-(4-(dimethylamino)-N-methylbut-2-enamido)phenyl)-8-oxo-8,9-dihydro-7H-purin-7-yl)-N-(benzo[d]thiazol-2-yl)benzamide] | < 100 |
| Cc1nnc(NC(=O)c2ccc(-n3c(=O)n(-c4cccc(N(C)C(=O)/C=C/CN(C)C)c4)c4ncnc(N)c43)cc2)s1 [Compound 24, (E)-4-(6-amino-9-(3-(4-(dimethylamino)-N-methylbut-2-enamido)phenyl)-8-oxo-8,9-dihydro-7H-purin-7-yl)-N-(5-methyl-1,3,4-thiadiazol-2-yl)benzamide] | 1000 to 10000 |
| Cc1cc(NC(=O)c2ccc(-n3c(=O)n(-c4cccc(N(C)C(=O)/C=C/CN(C)C)c4)c4ncnc(N)c43)cc2)sn1 [Compound 25, (E)-4-(6-amino-9-(3-(4-(dimethylamino)-N-methylbut-2-enamido)phenyl)-8-oxo-8,9-dihydro-7H-purin-7-yl)-N-(3-methylisothiazol-5-yl)benzamide] | 100 to 1000 |
| CN(C)C/C=C/C(=O)N(C)c1cccc(-n2c(=O)n(-c3ccc(C(=O)c4ccccc4)cc3)c3c(N)ncnc32)c1 [Compound 26, (E)-N-(3-(6-amino-7-(4-benzoylphenyl)-8-oxo-7H-purin-9(8H)-yl)phenyl)-4-(dimethylamino)-N-methylbut-2-enamide] | < 100 |
